Measurements taken from ChEMBL document CHEMBL5653615 (J Biol Chem, 2013).

Key:
[1] = biological target: Cyclin-dependent kinase 2/cyclin E1 (Homo sapiens) (UniProt P24864+P24941); test: Inhibition of human CDK2/cyclin E at 500 nM by HotSpot assay relative to control; assay type: protein-complex assay
[2] = biological target: T1, Serine/threonine-protein kinase BRSK2 (Homo sapiens) (UniProt Q8IWQ3); test: Inhibition of human BRSK2 at 500 nM by HotSpot assay relative to control
T1 sequence (whole entry): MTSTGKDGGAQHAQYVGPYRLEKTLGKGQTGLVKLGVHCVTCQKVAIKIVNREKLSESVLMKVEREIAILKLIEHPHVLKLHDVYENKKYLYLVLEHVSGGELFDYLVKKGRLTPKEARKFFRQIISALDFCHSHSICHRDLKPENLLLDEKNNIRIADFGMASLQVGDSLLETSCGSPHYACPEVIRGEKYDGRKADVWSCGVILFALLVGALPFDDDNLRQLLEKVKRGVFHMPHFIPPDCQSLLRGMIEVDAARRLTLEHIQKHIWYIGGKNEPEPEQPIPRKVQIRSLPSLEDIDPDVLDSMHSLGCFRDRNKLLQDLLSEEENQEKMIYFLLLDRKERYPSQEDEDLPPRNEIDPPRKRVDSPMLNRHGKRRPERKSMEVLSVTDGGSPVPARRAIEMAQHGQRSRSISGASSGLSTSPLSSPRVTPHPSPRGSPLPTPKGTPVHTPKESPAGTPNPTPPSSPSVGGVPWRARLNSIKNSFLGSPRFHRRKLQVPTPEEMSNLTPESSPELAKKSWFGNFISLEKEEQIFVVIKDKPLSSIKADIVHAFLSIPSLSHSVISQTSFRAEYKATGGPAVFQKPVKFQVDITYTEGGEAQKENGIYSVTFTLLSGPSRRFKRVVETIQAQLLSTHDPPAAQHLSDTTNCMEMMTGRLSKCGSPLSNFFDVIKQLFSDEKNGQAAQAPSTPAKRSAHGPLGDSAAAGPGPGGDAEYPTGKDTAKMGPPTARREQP

[3] = biological target: Casein kinase I isoform gamma-3 (Homo sapiens) (UniProt Q9Y6M4); test: Inhibition of human CK1g3 at 500 nM by HotSpot assay relative to control
Sequence of Casein kinase I isoform gamma-3 (Homo sapiens) (Q9Y6M4 whole entry, looked up, canonical isoform): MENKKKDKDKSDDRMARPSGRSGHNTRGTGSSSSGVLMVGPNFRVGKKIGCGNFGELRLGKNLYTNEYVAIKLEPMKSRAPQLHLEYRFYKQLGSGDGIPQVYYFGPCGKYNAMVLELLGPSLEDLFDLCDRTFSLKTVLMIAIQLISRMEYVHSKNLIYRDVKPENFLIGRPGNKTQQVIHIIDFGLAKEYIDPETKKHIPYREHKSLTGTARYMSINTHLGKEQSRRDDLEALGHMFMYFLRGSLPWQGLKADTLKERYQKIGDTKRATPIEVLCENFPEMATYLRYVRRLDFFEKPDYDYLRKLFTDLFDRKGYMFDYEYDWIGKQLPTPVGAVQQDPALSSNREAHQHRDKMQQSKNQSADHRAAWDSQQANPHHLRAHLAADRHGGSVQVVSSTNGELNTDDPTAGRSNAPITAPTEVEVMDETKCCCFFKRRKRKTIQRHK

[4] = biological target: T2, Ephrin type-B receptor 2 (Homo sapiens) (UniProt P29323); test: Inhibition of human EPHB2 at 500 nM by HotSpot assay relative to control
T2 sequence (whole entry): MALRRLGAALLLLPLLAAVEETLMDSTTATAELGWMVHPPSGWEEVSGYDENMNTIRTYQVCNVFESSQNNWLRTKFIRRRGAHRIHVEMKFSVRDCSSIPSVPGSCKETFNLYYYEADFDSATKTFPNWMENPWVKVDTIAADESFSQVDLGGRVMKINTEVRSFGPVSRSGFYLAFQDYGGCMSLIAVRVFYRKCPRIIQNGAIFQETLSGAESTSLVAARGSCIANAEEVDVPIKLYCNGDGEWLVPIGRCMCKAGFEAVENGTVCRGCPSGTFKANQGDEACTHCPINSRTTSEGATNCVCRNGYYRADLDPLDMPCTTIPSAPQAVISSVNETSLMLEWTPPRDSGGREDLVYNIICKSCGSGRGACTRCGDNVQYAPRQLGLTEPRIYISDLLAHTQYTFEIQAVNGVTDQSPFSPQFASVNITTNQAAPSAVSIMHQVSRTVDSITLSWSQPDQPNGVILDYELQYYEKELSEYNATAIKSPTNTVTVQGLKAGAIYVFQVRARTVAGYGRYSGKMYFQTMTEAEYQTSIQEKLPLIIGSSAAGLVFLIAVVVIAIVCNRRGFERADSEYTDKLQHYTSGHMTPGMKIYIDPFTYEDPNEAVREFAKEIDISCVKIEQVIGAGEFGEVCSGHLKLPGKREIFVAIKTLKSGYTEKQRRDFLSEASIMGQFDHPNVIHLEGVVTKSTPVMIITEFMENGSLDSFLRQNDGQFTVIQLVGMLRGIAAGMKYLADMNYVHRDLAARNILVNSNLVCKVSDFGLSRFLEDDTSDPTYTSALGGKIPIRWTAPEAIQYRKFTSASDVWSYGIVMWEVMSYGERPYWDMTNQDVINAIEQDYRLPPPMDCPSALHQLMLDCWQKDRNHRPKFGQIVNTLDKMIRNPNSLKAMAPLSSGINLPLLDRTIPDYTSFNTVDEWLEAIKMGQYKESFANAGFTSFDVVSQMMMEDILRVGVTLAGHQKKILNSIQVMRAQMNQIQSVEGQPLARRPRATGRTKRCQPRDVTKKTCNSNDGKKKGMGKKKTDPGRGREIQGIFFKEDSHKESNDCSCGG

[5] = biological target: Tyrosine-protein kinase FRK (Homo sapiens) (UniProt P42685); test: Inhibition of human FRK at 500 nM by HotSpot assay relative to control
Sequence of Tyrosine-protein kinase FRK (Homo sapiens) (P42685 whole entry): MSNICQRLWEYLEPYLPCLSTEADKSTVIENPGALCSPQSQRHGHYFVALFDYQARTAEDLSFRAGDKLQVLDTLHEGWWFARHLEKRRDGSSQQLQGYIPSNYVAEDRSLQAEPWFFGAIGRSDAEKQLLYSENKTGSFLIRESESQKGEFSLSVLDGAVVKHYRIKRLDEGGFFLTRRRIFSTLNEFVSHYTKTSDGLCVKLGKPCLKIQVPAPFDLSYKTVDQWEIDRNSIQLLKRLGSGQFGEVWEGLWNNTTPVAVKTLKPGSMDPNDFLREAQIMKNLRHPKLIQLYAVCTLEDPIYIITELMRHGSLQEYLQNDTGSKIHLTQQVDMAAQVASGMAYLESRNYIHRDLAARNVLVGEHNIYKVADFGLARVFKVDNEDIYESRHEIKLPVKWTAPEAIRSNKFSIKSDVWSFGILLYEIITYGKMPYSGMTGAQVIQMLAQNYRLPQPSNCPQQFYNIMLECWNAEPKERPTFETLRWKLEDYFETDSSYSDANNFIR

[6] = biological target: Serine/threonine-protein kinase WNK3 (Homo sapiens) (UniProt Q9BYP7); test: Inhibition of human WNK3 at 500 nM by HotSpot assay relative to control
Sequence of Serine/threonine-protein kinase WNK3 (Homo sapiens) (Q9BYP7 whole entry): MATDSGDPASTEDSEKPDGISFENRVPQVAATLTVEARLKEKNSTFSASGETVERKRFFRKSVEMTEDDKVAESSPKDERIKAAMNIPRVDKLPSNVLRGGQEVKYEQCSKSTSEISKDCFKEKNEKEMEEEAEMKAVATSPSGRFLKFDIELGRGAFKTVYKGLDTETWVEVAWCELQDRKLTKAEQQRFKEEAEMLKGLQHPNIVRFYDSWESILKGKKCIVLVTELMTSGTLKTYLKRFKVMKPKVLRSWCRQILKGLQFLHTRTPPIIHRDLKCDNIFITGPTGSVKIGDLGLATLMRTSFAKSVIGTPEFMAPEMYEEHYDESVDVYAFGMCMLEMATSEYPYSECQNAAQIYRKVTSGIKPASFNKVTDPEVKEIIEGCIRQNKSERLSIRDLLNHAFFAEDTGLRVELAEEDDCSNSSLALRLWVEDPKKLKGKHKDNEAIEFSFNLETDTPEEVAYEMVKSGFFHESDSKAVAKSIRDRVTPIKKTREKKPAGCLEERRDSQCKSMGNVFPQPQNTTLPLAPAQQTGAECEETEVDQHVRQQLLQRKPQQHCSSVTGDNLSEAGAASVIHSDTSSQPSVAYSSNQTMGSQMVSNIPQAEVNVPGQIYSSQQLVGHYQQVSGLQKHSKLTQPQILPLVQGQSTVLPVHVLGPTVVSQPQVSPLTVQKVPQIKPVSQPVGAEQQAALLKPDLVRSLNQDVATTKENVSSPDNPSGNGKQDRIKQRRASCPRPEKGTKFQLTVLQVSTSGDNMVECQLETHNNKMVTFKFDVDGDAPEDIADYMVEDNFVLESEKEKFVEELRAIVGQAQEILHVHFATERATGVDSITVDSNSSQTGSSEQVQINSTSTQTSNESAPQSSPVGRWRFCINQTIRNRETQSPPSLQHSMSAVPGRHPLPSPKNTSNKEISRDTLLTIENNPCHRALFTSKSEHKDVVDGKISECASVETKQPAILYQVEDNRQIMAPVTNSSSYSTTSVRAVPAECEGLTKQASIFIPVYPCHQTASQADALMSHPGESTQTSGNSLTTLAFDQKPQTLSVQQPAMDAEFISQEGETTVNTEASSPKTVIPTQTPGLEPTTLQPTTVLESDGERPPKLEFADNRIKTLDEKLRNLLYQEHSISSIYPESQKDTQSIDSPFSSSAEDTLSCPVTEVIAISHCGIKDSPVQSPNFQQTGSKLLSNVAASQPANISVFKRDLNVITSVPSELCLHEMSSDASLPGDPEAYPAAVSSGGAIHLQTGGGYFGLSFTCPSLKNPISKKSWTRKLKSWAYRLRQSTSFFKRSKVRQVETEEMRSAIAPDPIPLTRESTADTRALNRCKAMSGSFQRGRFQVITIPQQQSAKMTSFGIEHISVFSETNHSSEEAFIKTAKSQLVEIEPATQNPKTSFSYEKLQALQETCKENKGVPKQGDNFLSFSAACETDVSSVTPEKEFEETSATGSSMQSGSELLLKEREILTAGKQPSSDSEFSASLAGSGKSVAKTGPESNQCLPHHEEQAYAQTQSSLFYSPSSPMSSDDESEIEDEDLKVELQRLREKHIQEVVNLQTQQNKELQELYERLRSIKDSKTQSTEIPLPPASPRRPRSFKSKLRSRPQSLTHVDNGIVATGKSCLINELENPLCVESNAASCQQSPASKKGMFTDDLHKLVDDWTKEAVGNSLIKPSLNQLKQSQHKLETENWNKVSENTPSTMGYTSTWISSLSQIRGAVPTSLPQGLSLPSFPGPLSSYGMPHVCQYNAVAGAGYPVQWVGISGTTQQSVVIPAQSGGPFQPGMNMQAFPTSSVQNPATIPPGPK

[7] = biological target: Cyclin-dependent kinase 4/cyclin D1 (Homo sapiens) (UniProt P11802+P24385); test: Inhibition of human CDK4/cyclin D1 at 500 nM by HotSpot assay relative to control; assay type: protein-complex assay
[8] = biological target: T3, Protein kinase C epsilon type (Homo sapiens) (UniProt Q02156); test: Inhibition of human PKCepsilon at 500 nM by HotSpot assay relative to control
T3 sequence (whole entry): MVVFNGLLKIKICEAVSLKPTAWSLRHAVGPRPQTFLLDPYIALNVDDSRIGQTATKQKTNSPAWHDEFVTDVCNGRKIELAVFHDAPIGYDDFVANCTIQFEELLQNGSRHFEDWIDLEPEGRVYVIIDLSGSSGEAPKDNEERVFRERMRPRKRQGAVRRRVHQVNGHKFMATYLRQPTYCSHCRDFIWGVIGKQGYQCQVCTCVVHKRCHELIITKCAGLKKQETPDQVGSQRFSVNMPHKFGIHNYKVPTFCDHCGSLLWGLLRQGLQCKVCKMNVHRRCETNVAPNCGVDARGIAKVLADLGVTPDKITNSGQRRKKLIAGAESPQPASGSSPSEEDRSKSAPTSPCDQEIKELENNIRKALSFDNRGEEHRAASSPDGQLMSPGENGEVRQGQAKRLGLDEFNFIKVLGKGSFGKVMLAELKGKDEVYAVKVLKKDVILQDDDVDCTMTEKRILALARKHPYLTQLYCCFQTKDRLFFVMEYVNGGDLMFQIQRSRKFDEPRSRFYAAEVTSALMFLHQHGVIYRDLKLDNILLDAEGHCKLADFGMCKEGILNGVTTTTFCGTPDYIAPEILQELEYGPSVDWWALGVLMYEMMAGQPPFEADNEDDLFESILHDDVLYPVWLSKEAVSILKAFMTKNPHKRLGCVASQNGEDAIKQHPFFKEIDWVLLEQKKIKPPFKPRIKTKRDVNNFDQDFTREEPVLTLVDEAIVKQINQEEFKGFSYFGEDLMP

[9] = biological target: Serine/threonine-protein kinase MARK2 (Homo sapiens) (UniProt Q7KZI7); test: Inhibition of human PAR-1Ba at 500 nM by HotSpot assay relative to control
Sequence of Serine/threonine-protein kinase MARK2 (Homo sapiens) (Q7KZI7 whole entry): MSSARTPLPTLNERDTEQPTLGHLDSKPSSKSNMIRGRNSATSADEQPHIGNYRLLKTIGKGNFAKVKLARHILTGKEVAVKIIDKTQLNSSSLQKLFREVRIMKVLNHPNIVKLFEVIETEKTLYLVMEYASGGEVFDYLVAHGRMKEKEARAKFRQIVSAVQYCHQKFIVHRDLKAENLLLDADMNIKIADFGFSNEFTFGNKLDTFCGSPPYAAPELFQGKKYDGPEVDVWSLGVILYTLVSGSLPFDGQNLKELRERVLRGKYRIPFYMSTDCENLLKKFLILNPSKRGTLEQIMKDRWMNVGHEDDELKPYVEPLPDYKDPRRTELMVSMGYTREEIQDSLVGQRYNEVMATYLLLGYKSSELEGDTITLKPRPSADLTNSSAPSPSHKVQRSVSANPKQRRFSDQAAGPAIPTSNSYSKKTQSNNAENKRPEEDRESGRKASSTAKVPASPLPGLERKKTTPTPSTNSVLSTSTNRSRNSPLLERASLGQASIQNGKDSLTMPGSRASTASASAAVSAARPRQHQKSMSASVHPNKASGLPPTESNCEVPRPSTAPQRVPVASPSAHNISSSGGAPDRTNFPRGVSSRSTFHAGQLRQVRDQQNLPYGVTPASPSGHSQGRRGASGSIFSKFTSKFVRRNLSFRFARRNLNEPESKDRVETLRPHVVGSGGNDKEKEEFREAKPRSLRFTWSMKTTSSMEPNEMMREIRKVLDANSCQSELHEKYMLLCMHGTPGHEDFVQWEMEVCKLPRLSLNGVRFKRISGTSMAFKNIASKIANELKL

## Oc1n[nH]c2nnc(-c3c(-c4ccccc4)nn4ccccc34)cc12
[1]
  inhibition: 0.01%
[2]
  inhibition: 1.23%
[3]
  inhibition: -4.44%
[4]
  inhibition: 5.22%
[5]
  inhibition: -4.01%
[6]
  inhibition: 0.29%
[7]
  inhibition: 1.57%
[8]
  inhibition: 3.42%
[9]
  inhibition: -4.11%

## Nc1n[nH]c2nnc(-c3c(-c4ccccc4)nn4ccccc34)cc12
[1]
  inhibition: -0.67%
[2]
  inhibition: 3.92%
[3]
  inhibition: 6.29%
[4]
  inhibition: 6.94%
[5]
  inhibition: -1.32%
[6]
  inhibition: -1.28%
[7]
  inhibition: 10.8%
[8]
  inhibition: 27.3%
[9]
  inhibition: -4.05%
